Where two headings read alike, the source gives them in different places.
Legend:
Assay type in all cases: cell-based, human
[1] = test system: Mutant Her-2/neu promoter; assay: Luciferase reporter driven by Her-2/neu promoter with mutated PEA3 binding site; conditions: for Luciferase activity relative to vehicle-treated wild-type promoter cells: mutant promoter, GLA 10 μg/mL for 24 hours
Procedure: (§1) FIG. 11. Luciferase activity in transiently transfected cells. Luciferase activity was assayed in cells that were transiently transfected with a pGL2-Luc construct containing a luciferase reporter gene under the control of a Her-2/neu promoter fragment containing a wild-type (top panel, left) or mutant (top panel, right) PEA3 binding site as described herein. The magnitude of activation in Her-2/neu promoter-luciferase-transfected cells was determined after normalization of the luciferase activity obtained in cells co-transfected with equivalent amounts of the empty pGL2-Luciferase vector lacking the Her-2/neu promoter (-luciferase) and the internal control plasmid pRL-CMV. This control value was used to calculate the relative change in the transcriptional activities of Her-2/neu-promoter-luciferase-transfected cells in response to treatments after normalization to pRL-CMV. The activity of the wild-type promoter in untreated control cells was defined as 100%. […] One-factor ANOVA was used to analyzed differences in the percentages of luciferase activity between the various treatment groups.
(§2) The luciferase activities reported in Table 3 were assayed in cells that were transiently transfected with a pGL2-luciferase (Promega Inc., Madison, Wis.) construct containing a luciferase reporter gene under the control of a Her-2/neu promoter fragment containing a wild-type or mutant PEA3 binding site, as previously described by Xing et al. (36), incorporated herein by reference. Cells were transfected using FuGENE 6 transfection reagent (Roche Biochemicals, Indianapolis, Ind.) as directed by the manufacturer and were treated with vehicle (ethanol; EtOH) or γ-linolenic acid (10 μg/mL for 24 hours). Luciferase activity from cell extracts was detected with a Luciferase Assay System (Promega Inc.).
To examine whether the increased PEA3 levels might mediate the inhibition of Her-2/neu transcription in GLA-treated cells, the effect of GLA on transcription from a Her-2/neu promoter bearing a mutated PEA3 binding sequence, at −33 to −28, that is known to abolish PEA3 binding (36, incorporated herein by reference) was investigated. For this analysis we used the same luciferase reporter gene construct described above but containing the HER-2/neu promoter mutation at the PEA3 binding site (5′-GAG GAA-3′ at −33 to −28 changed to 5′-GAG CTC-3′).
(§3) To conduct Her-2/neu promoter activity assays, cells were initially transfected using FuGENE 6 transfection reagent (Roche Biochemicals, Indianapolis, Ind.) as directed by the manufacturer. Overnight-serum starved cancer cells seeded into 24-well plates (˜5×10^4 cells/well) were transfected in low-serum (0.1% FBS) media with 1.5 μg/well of the pGL2-luciferase (Promega, Madison, Wis.) construct containing a luciferase reporter gene driven by either an intact (Her-2/neu wild-type PEA3-binding site-luciferase) or by a mutated (Her-2/neu mutated PEA3-binding site-luciferase) Her-2/neu promoter fragment along with […] of the internal control plasmid pRL-CMV, which was used to correct for transfection efficiency. […] Approximately 24 hours after treatments, luciferase activities from cell extracts were detected with a luciferase Assay System following manufacturer's instructions (Promega, Madison, Wis., USA) using a Victor^2™ Multilabel Counter (Perkin-Elmer Life Sciences).

[2] = test system: Wild-type Her-2/neu promoter; assay: Luciferase reporter driven by wild-type Her-2/neu promoter, transient transfection; conditions: for Luciferase activity relative to vehicle-treated wild-type promoter cells: GLA 10 μg/mL for 24 hours; for inhibition at 20 µM: Homo sapiens, OA 20 μM, 24 hours, read-out: reduction (inhibition) of Her-2/neu gene promoter activity
Procedure: as §1
as §2, with “Cells were transfected using FuGENE 6 transfection reagent (Roche Biochemicals, Indianapolis, Ind.) as directed by the manufacturer and were treated with vehicle (ethanol; EtOH) or γ-linolenic acid (10 μg/mL for 24 hours).” left out
as §3

Her-2/neu mRNA = assay: Semiquantitative RT-PCR of Her-2/neu transcripts

In the case of `CCCCCC=CCC=CCC=CCCCCC(=O)O` [GLA, 6,9,12-octadecatrienoic acid], the “Luciferase activity relative to vehicle-treated wild-type promoter cells” value ([1]; BT-474) is reported as 12% (95% CI = 9-15%), the “Luciferase activity relative to vehicle-treated wild-type promoter cells” value ([1]; MDA-MB-231) is reported as 61% (95% CI = 59-63%) and the “Luciferase activity relative to vehicle-treated wild-type promoter cells” value ([1]; MDA-MB-453) is reported as 11% (95% CI = 3-19%). The “Luciferase activity relative to vehicle-treated wild-type promoter cells” value ([1]; NCI-N87) was 19% (95% CI = 12-26%), the “Luciferase activity relative to vehicle-treated wild-type promoter cells” value ([1]; SK-Br3) was 21% (95% CI = 18-24%) and the “Luciferase activity relative to vehicle-treated wild-type promoter cells” value ([1]; SK-OV3) was 14% (95% CI = 6-22%). For the same molecule, the “Luciferase activity relative to vehicle-treated wild-type promoter cells” value ([2]; BT-474) was 35% (95% CI = 33-37%), the “Luciferase activity relative to vehicle-treated wild-type promoter cells” value ([2]; MDA-MB-231) was 80% (95% CI = 75-85%) and the “Luciferase activity relative to vehicle-treated wild-type promoter cells” value ([2]; MDA-MB-453) was 26% (95% CI = 25-27%). The “Luciferase activity relative to vehicle-treated wild-type promoter cells” value ([2]; NCI-N87) was 38% (95% CI = 34-42%), the “Luciferase activity relative to vehicle-treated wild-type promoter cells” value ([2]; SK-Br3) was 54% (95% CI = 51-57%) and the “Luciferase activity relative to vehicle-treated wild-type promoter cells” value ([2]; SK-OV3) was 21% (95% CI = 16-26%). The “transcription of the Her-2/neu gene (RT-PCR)” value (Her-2/neu mRNA; BT-474 and SK-Br3, GLA 5, 10, or 20 μg/ml for 48 hours) was “Strong, dose-dependent decreases”.
For `CCCCCCCCC=CCCCCCCCC(=O)O` [OA, 9-octadecenoic acid], the “regulation of luciferase reporter driven by promoter with mutated PEA3 site” value ([1]; OA-supplemented SK-Br3, SK-OV3 and NCI-N87 cells) was “not subject to negative regulation”, the inhibition at 20 µM ([2]; NCI-N87, 24 h, NCI-N87) was 55% and the inhibition at 20 µM ([2]; SK-BR-3, 24 h, SK-Br3) was ≤ 56%. The inhibition at 20 µM ([2]; SK-OV-3, 24 h, SK-OV3) was ≤ 75%, the “reduction of Her-2/neu gene promoter activity” value ([2]; MCF-7/Her2-18 transfectants, OA supplementation) was “up to 22%” and the “reduction of wild-type Her-2/neu promoter luciferase reporter activity” value ([2]; MCF-7/neo cells, OA treatment) was “up to 12%”. For the same molecule, the “reduction of Her-2/neu promoter activity” value ([2]; MCF-7 breast cancer cells (physiological Her-2/neu levels), OA) was < 20% and the “expression levels of Her-2/neu transcripts (RT-PCR)” value (Her-2/neu mRNA; OA-treated SK-Br3 cells) was “significant reduction”.
